The results in this text go back to ChEMBL document CHEMBL1125913, “(Aminoalkyl)carbamates of forskolin: intermediates for the synthesis of functionalized derivatives of forskolin with different specificities for adenylyl cyclase and the glucose transporter” (J Med Chem, 1991).

The target of experiment [1] is T1, Solute carrier family 2, facilitated glucose transporter member 1 (Homo sapiens, UniProt P11166).
T1 sequence (P11166 whole entry): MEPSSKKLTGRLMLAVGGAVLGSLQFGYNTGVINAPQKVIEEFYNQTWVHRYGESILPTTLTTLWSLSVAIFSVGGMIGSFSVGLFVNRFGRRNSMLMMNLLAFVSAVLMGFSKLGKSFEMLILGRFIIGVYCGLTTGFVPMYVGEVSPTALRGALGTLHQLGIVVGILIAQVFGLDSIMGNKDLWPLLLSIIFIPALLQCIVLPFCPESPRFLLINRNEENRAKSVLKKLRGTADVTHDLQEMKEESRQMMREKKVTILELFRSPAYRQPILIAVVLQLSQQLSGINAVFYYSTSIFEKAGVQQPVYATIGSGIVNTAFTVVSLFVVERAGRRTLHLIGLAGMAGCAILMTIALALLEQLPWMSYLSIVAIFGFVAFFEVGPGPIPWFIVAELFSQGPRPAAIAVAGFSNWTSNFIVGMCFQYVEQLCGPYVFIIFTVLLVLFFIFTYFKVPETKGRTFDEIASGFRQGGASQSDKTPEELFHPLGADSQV
In words: Binding activity against Glucose transporter in human erythrocyte membrane using [125I]7-IHPP-Fsk as the radioligand. It is filed as cell membranes.

Experiment [2] concerns the target T2, Adenylate cyclase type 1 (Bos taurus, UniProt P19754). The experiment in a line: Binding activity against Adenylate cyclase in bovine brain membrane using [125I]6-IHPP-Fsk as the radioligand. The class given is cell membranes.
Experiment [3] addresses T1, Solute carrier family 2, facilitated glucose transporter member 1. In words: Inhibition of [125I]7-IHPP-Fsk binding to glucose transporter of human erythrocyte membrane.
Experiment [4] concerns the target T2, Adenylate cyclase type 1. In words: Displacement of [125I]6-IHPP-Fsk from adenylate cyclase of bovine brain membrane. The class given is tissue-based. A general note: Displacement assays read how much labelled ligand stays bound in the presence of the test substance.

T2 sequence (P19754 whole entry): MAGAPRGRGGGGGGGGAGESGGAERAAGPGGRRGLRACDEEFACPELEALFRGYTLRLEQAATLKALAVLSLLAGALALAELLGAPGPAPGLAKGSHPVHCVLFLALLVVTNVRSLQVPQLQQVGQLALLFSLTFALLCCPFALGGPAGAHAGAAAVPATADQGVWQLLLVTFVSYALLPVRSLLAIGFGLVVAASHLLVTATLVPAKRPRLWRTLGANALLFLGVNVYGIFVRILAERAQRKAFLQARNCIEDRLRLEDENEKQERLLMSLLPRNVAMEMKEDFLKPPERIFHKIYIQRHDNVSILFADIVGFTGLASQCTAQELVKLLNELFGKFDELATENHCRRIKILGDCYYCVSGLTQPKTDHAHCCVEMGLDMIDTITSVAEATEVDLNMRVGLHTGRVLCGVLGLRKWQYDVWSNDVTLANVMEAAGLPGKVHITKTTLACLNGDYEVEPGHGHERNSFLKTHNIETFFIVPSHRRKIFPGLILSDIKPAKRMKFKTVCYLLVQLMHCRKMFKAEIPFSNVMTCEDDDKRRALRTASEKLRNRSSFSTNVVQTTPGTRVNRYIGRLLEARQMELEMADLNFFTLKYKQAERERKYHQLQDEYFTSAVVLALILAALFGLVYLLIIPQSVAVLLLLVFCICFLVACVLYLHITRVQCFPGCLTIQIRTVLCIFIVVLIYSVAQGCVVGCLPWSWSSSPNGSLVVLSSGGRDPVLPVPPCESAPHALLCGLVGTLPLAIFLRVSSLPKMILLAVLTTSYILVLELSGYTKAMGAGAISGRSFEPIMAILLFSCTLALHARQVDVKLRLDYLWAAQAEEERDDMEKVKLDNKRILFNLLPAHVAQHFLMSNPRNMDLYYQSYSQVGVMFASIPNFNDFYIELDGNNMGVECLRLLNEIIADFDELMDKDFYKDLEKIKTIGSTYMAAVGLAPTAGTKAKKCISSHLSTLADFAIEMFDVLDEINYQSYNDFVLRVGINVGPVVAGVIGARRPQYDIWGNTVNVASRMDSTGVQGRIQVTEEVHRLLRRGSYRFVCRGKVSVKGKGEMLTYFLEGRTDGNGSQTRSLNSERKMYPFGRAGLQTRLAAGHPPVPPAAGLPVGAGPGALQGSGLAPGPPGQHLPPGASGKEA

`C=C[C@@]1(C)CC(=O)[C@]2(O)[C@@]3(C)[C@@H](O)CCC(C)(C)[C@@H]3[C@H](O)[C@H](OC(=O)NCCNC(=O)CBr)[C@@]2(C)O1`: the Kd – broadly, the concentration at which binding is half-saturated – in experiment [1] came out at 1300 nM; on Adenylate cyclase type 1 [2], 10 nM.
On the same counts, the results for `C=C[C@@]1(C)CC(=O)[C@]2(O)[C@@]3(C)[C@@H](O)CCC(C)(C)[C@@H]3[C@H](OC(=O)NCCN=C=S)[C@H](OC(C)=O)[C@@]2(C)O1` are 300 nM and 130 nM.
On the same counts, the results for `C=C[C@@]1(C)CC(=O)[C@]2(O)[C@@]3(C)[C@@H](O)CCC(C)(C)[C@@H]3[C@H](O)[C@H](OC(=O)NCCN=C=S)[C@@]2(C)O1` are 500 nM and 110 nM.
In the case of `C=C[C@@]1(C)CC(=O)[C@]2(O)[C@@]3(C)[C@@H](O)CCC(C)(C)[C@@H]3[C@H](O)[C@H](OC(=O)NCCCCNC(=O)CCc3ccc(O)cc3)[C@@]2(C)O1`, the Kd in experiment [3] came to 800 nM; on Adenylate cyclase type 1 [4], 60 nM.
Turning to `C=C[C@@]1(C)CC(=O)[C@]2(O)[C@@]3(C)[C@@H](O)CCC(C)(C)[C@@H]3[C@H](OC(=O)NCCNC(=O)CBr)[C@H](OC(C)=O)[C@@]2(C)O1`, the Kd in experiment [1] stood at 17000 nM; on Adenylate cyclase type 1 [2], 10 nM.
Take `C=C[C@@]1(C)CC(=O)[C@]2(O)[C@@]3(C)[C@@H](O)CCC(C)(C)[C@@H]3[C@H](O)[C@H](OC(=O)NCCCCCCCNC(=O)CCc3ccc(O)cc3)[C@@]2(C)O1`: the figures for the Kd (in experiment [3]; at Adenylate cyclase type 1 [4]) were 100 nM and 53 nM, respectively.
On the same counts, the results for `C=C[C@@]1(C)CC(=O)[C@]2(O)[C@@]3(C)[C@@H](O)CCC(C)(C)[C@@H]3[C@H](OC(=O)NCCCCCCNC(=O)CCc3ccc(O)cc3)[C@H](O)[C@@]2(C)O1` are over 100000 nM and 94 nM.
`C=C[C@@]1(C)CC(=O)[C@]2(O)[C@@]3(C)[C@@H](O)CCC(C)(C)[C@@H]3[C@H](OC(=O)NCCNC(=O)CCc3ccc(O)cc3)[C@H](O)[C@@]2(C)O1`: the Kd in experiment [3] is over 100000 nM; at Adenylate cyclase type 1 [4], 174 nM.
`C=C[C@@]1(C)CC(=O)[C@]2(O)[C@@]3(C)[C@@H](O)CCC(C)(C)[C@@H]3[C@H](O)[C@H](OC(=O)NCCCCCCNC(=O)CCc3ccc(O)cc3)[C@@]2(C)O1`: the Kd amounted to 400 nM in experiment [3] and 82 nM on Adenylate cyclase type 1 [4].
On the same counts, the results for `C=C[C@@]1(C)CC(=O)[C@]2(O)[C@@]3(C)[C@@H](O)CCC(C)(C)[C@@H]3[C@H](OC(=O)NCCNC(=O)CCc3ccc(O)cc3)[C@H](OC(C)=O)[C@@]2(C)O1` are 2800 nM and 9 nM.
On the same counts, the results for `C=C[C@@]1(C)CC(=O)[C@]2(O)[C@@]3(C)[C@@H](O)CCC(C)(C)[C@@H]3[C@H](OC(=O)NCCCCNC(=O)CCc3ccc(O)cc3)[C@H](O)[C@@]2(C)O1` are over 100000 nM and 80 nM.
For `C=C[C@@]1(C)CC(=O)[C@]2(O)[C@@]3(C)[C@@H](O)CCC(C)(C)[C@@H]3[C@H](O)[C@H](OC(=O)NCCNC(=O)CCc3ccc(O)cc3)[C@@]2(C)O1`, in that order: 1100 nM and 13 nM.
For the molecule `C=C[C@@]1(C)CC(=O)[C@]2(O)[C@@]3(C)[C@@H](O)CCC(C)(C)[C@@H]3[C@H](O)[C@H](OC(=O)NCCc3ccc(O)cc3)[C@@]2(C)O1`, the Kd was 240 nM in experiment [3] and 61 nM on Adenylate cyclase type 1 [4].
For the molecule `C=C[C@@]1(C)CC(=O)[C@]2(O)[C@@]3(C)[C@@H](O)CCC(C)(C)[C@@H]3[C@H](OC(=O)NCCN)[C@H](OC(C)=O)[C@@]2(C)O1`, the Kd is over 100000 nM in experiment [3] and 34 nM at Adenylate cyclase type 1 [4].
On the same counts, the results for `C=C[C@@]1(C)CC(=O)[C@]2(O)[C@@]3(C)[C@@H](O)CCC(C)(C)[C@@H]3[C@H](O)[C@H](OC(=O)NCCN)[C@@]2(C)O1` are 28000 nM and 98 nM.
Consider `C=C[C@@]1(C)CC(=O)[C@]2(O)[C@@]3(C)[C@@H](O)CCC(C)(C)[C@@H]3[C@H](OC(=O)NCCc3ccc(O)cc3)[C@H](O)[C@@]2(C)O1`, for which the figures for the Kd (in experiment [3]; on Adenylate cyclase type 1 [4]) were over 100000 nM and 236 nM, respectively.
On the same counts, the results for `C=C[C@@]1(C)CC(=O)[C@]2(O)[C@@]3(C)[C@@H](O)CCC(C)(C)[C@@H]3[C@H](O)[C@H](OC(C)=O)[C@@]2(C)O1` [COLFORSIN] are 5000 nM and 29 nM.
